From patent US8871934B2, “Fluorene compound and pharmaceutical use thereof” (Japan Tobacco Inc., priority 2008, dated 2014)
Read-outs that look alike come from different tables or passages of the source.

Target: human PDHK2 (hPDHK2) (Homo sapiens (Human), UniProt Q15119)
Test: Inhibitory action of PDHK activity in vitro (kinase reaction, residual PDH activity measured)
Assay type: biochemical
Protocol: In the case of human PDHK2 (hPDHK2, Genbank Accession No. NM_002611), modified hPDHK2 cDNA wherein FLAG-Tag sequence is added to the N terminal by a polymerase linkage reaction was prepared based on hPDHK2 cDNA clone (pReceiver-M01/PDK2-GeneCopoeia), and cloned into a vector (pET17b-Novagen). The recombinant construct was transformed into Escherichia coli (DH5α-TOYOBO). The recombinant clones were identified, plasmid DNA was isolated and subjected to the DNA sequence analysis. One clone which had the expected nucleic acid sequence was selected for expression work.
During the assay, the hPDHK2 enzyme concentration was set to the minimal concentration at which PDH is inhibited the most.
0.05 U/mL PDH (porcine heart PDH complex, Sigma P7032) and 1.6 μg/mL hPDHK2 were mixed in a buffer (50 mmol/L 3-morpholinopropanesulfonic acid (pH 7.0), 20 mmol/L dipotassium hydrogen phosphate, 60 mmol/L potassium chloride, 2 mmol/L magnesium chloride, 0.4 mmol/L EDTA, and 0.2% Pluronic F-68, 2 mmol/L dithiothreitol), the mixture was incubated at 4° C. overnight to give PDH/hPDHK2 complex. The test compound was diluted with dimethyl sulfoxide (DMSO). PDH/hPDHK2 complex (20 μL), test compound (1.5 μL) and 3.53 μmol/L ATP (diluted with buffer, 8.5 μL) were added to a half area 96 well UV-transparent microplate (Corning 3679), and PDHK reaction was performed at room temperature for 45 min. Instead of the test compound, DMSO (1.5 μL) was added to a control well. DMSO (1.5 μL) was added instead of the test compound to a blank well for the measurement of the maximum rate of PDH reaction, and hPDHK2 was not added. Than, 10 μL of substrates (5 mmol/L sodium pyruvate, 5 mmol/L Coenzyme A, 12 mmol/L NAD, and 5 mmol/L thiamine pyrophosphate, diluted with buffer) was added. The mixture was incubated at room temperature for 90 min, and the residual PDH activity was measured. The absorbance at 340 nm before and after PDH reaction was measured on a microplate reader to detect NADH produced by the PDH reaction. The PDHK inhibitory rate (%) of the test compound was calculated from the formula [{(PDH activity of test compound—PDH activity of control)/PDH activity of blank—PDH activity of control)}×100]. The IC50 value was calculated from the concentrations of the test compound at two points enclosing 50% inhibition of the PDHK activity.

[1] = PDHK inhibitory activity (class symbol)
[2] = read-out: PDHK inhibitory activity IC50
[3] = PDHK inhibitory activity, class symbol of IC50
[4] = PDHK inhibitory activity IC50 (μmol/L)

| Compound | IC50 [1] | IC50 [2] | IC50 (read-out: PDHK inhibitory activity, class symbol of IC50) | IC50 [3] | IC50 [4] |
| --- | --- | --- | --- | --- | --- |
| CCn1cc(-c2cc(CO)c3c(c2)C(O)(C(F)(F)F)c2ccccc2-3)cn1 (single isomer, unassigned) [compound 629, 4-hydroxymethyl-2-(1-ethyl-1H-pyrazol-4-yl)-9-trifluoromethyl-9H-fluoren-9-ol] | < 0.1 µM | 0.045 µM | – | – | – |
| COC(=O)c1cc(Cl)c2c(c1)C(O)(C(F)(F)F)c1ccccc1-2 (single isomer, unassigned) [compound 647, 4-chloro-9-hydroxy-9-trifluoromethyl-9H-fluorene-2-carboxylic acid methyl ester] | 0.1 to 1 µM | 0.169 µM | – | – | – |
| O=C(c1cc(-c2cnn(CCO)c2)c2c(c1)C(O)(C(F)(F)F)c1ccccc1-2)N1CCCC1 (single isomer, unassigned) [compound 657] | < 0.1 µM | 0.02 µM | – | – | – |
| CC(C)(C)Cn1cc(-c2cc(C(N)=O)c3c(c2)C(O)(C(F)(F)F)c2ccccc2-3)cn1 (single isomer, unassigned) [compound 659, 2-[1-(2,2-dimethyl-propyl)-1H-pyrazol-4-yl]-9-hydroxy-9-trifluoromethyl-9H-fluorene-4-carboxylic acid amide] | < 0.1 µM | 0.016 µM | – | – | – |
| CC(C)(C)Cn1cc(-c2cc(CO)c3c(c2)C(O)(C(F)(F)F)c2ccccc2-3)cn1 (single isomer, unassigned) [compound 660, 2-[1-(2,2-dimethyl-propyl)-1H-pyrazol-4-yl]-4-hydroxymethyl-9-trifluoromethyl-9H-fluoren-9-ol] | < 0.1 µM | 0.017 µM | – | – | – |
| Cc1cc(-c2cnn(CC(CO)CO)c2)c2c(c1)C(O)(C(F)(F)F)c1ccccc1-2 (single isomer, unassigned) [compound 663] | < 0.1 µM | 0.018 µM | – | – | – |
| CC(C)=Cc1cc(-c2cnn(C(CO)CO)c2)c2c(c1)C(O)(C(F)(F)F)c1ccccc1-2 (single isomer, unassigned) [compound 664] | < 0.1 µM | 0.015 µM | – | – | – |
| CC(C)Cc1cc(-c2cnn(C(CO)CO)c2)c2c(c1)C(O)(C(F)(F)F)c1ccccc1-2 (single isomer, unassigned) [compound 665] | < 0.1 µM | 0.023 µM | – | – | – |
| NC(=O)c1cc(-c2cnn(CC3CCCCC3)c2)cc2c1-c1ccccc1C2(O)C(F)(F)F (single isomer, unassigned) [compound 667, 2-(1-cyclohexylmethyl-1H-pyrazol-4-yl)-9-hydroxy-9-trifluoromethyl-9H-fluorene-4-carboxylic acid amide] | < 0.1 µM | 0.015 µM | – | – | – |
| OCc1cc(-c2cnn(CC3CCCCC3)c2)cc2c1-c1ccccc1C2(O)C(F)(F)F (single isomer, unassigned) [compound 668] | < 0.1 µM | 0.017 µM | – | – | – |
| CC(C)(C)CCc1cc(-c2cnn(C(CO)CO)c2)c2c(c1)C(O)(C(F)(F)F)c1ccccc1-2 (single isomer, unassigned) [compound 669] | < 0.1 µM | 0.017 µM | – | – | – |
| CC(C)(O)Cn1cc(-c2cc(F)cc3c2-c2ccccc2C3(O)C(F)(F)F)cn1 (single isomer, unassigned) [compound 674] | < 0.1 µM | 0.03 µM | – | – | – |
| OCC(CO)c1ncc(-c2cc(F)cc3c2-c2ccccc2C3(O)C(F)(F)F)o1 (single isomer, unassigned) [compound 682] | < 0.1 µM | 0.079 µM | – | – | – |
| OCC(CO)c1noc(-c2cc(F)cc3c2-c2ccccc2C3(O)C(F)(F)F)n1 (single isomer, unassigned) [compound 685] | 0.1 to 1 µM | 0.338 µM | – | – | – |
| CC(C)(O)C(C)(C)n1cc(-c2cc(F)cc3c2-c2ccccc2C3(O)C(F)(F)F)cn1 (single isomer, unassigned) [compound 687] | < 0.1 µM | 0.051 µM | – | – | – |
| Cc1cc(-c2cnn(CCCc3nn[nH]n3)c2)c2c(c1)C(O)(C(F)(F)F)c1ccccc1-2 (single isomer, unassigned) [compound 691] | < 0.1 µM | 0.03 µM | – | – | – |
| CC(CO)(CO)n1cc(-c2cccc3c2-c2ccccc2C3(O)C(F)(F)F)cn1 (single isomer, unassigned) [compound 702] | < 0.1 µM | 0.03 µM | – | – | – |
| OCC(CO)(CO)n1cc(-c2cccc3c2-c2ccccc2C3(O)C(F)(F)F)cn1 (single isomer, unassigned) [compound 706] | < 0.1 µM | 0.031 µM | – | – | – |

| Compound | IC50 [1] | IC50 [2] | IC50 (read-out: PDHK inhibitory activity, class symbol of IC50) | IC50 [3] | IC50 [4] |
| --- | --- | --- | --- | --- | --- |
| OC1(C(F)(F)F)c2ccccc2-c2c(Cl)cc(F)cc21 (single isomer, unassigned; (+)) [Compound No. 526, (+)-4-chloro-2-fluoro-9-trifluoromethyl-9H-fluoren-9-ol] | – | 0.397 µM | 0.1 to 1 µM | – | – |
| Cc1cc(-c2cnn(CCC(=O)O)c2)c2c(c1)C(O)(C(F)(F)F)c1ccccc1-2 (single isomer, unassigned; (+)) [compound 538, (+)-3-[4-(9-hydroxy-2-methyl-9-trifluoromethyl-9H-fluoren-4-yl)-pyrazol-1-yl]-propionic acid] | – | 0.026 µM | – | < 0.1 µM | – |
| Cc1cc(-c2cnn(CCCC(=O)O)c2)c2c(c1)C(O)(C(F)(F)F)c1ccccc1-2 (single isomer, unassigned; (+)) [compound 539, (+)-4-[4-(9-hydroxy-2-methyl-9-trifluoromethyl-9H-fluoren-4-yl)-pyrazol-1-yl]-butyric acid] | – | 0.027 µM | – | < 0.1 µM | – |
| OCC(CO)n1cc(-c2cc(F)cc3c2-c2ccccc2C3(O)C(F)(F)F)cn1 (single isomer, unassigned; (+)) [compound 595, (+)-2-[4-(2-fluoro-9-hydroxy-9-trifluoromethyl-9H-fluoren-4-yl)-pyrazol-1-yl]-propane-1,3-diol] | – | 0.022 µM | – | < 0.1 µM | – |
| CC(CO)(CO)n1cc(-c2cc(F)cc3c2-c2ccccc2C3(O)C(F)(F)F)cn1 (single isomer, unassigned; (+)) [compound 673, (+)-2-[4-(2-fluoro-9-hydroxy-9-trifluoromethyl-9H-fluoren-4-yl)-pyrazol-1-yl]-2-methyl-propane-1,3-diol] | < 0.1 µM | 0.022 µM | – | – | – |
| OCC(CO)(CO)n1cc(-c2cc(F)cc3c2-c2ccccc2C3(O)C(F)(F)F)cn1 (single isomer, unassigned; (+)) [compound 703, (+)-2-[4-(2-fluoro-9-hydroxy-9-trifluoromethyl-9H-fluoren-4-yl)-pyrazol-1-yl]-2-hydroxymethyl-propane-1,3-diol] | < 0.1 µM | 0.02 µM | – | – | – |
| CCn1cc(-c2cc(C(N)=O)c3c(c2)C(O)(C(F)(F)F)c2ccccc2-3)cn1 (single isomer, unassigned; (-)) [compound 630, (−)-2-(1-ethyl-1H-pyrazol-4-yl)-9-hydroxy-9-trifluoromethyl-9H-fluorene-4-carboxylic acid amide] | < 0.1 µM | 0.02 µM | – | – | – |
| Cc1cc(Cl)c2c(c1)[C@](O)(C(F)(F)F)c1ccccc1-2 (stereo in doubt) [compound 520] | – | – | – | > 1 µM | 3.33 µM |
| Cc1cc(-c2cnn(CCO)c2)c2c(c1)[C@@](O)(C(F)(F)F)c1ccccc1-2 (stereo in doubt) [compound 529] | – | – | – | < 0.1 µM | 0.017 µM |
| OCCn1cc(-c2cc(F)cc3c2-c2ccccc2[C@]3(O)C(F)(F)F)cn1 (stereo in doubt) [compound 531] | – | – | – | < 0.1 µM | 0.02 µM |
| Cc1cc(-c2cnn(CC(N)=O)c2)c2c(c1)[C@@](O)(C(F)(F)F)c1ccccc1-2 (stereo in doubt) [compound 532] | – | – | – | < 0.1 µM | 0.016 µM |
| CNC(=O)Cn1cc(-c2cc(C)cc3c2-c2ccccc2[C@]3(O)C(F)(F)F)cn1 (stereo in doubt) [compound 533] | – | – | – | < 0.1 µM | 0.015 µM |
| CNC(=O)Cn1cc(-c2cc(F)cc3c2-c2ccccc2[C@]3(O)C(F)(F)F)cn1 (stereo in doubt) [compound 534] | – | – | – | < 0.1 µM | 0.016 µM |
| O=C(O)CCCn1cc(-c2cc(F)cc3c2-c2ccccc2[C@]3(O)C(F)(F)F)cn1 (stereo in doubt) [compound 537] | – | – | – | < 0.1 µM | 0.035 µM |
| O=C(O)CCn1cc(-c2cc(F)cc3c2-c2ccccc2[C@]3(O)C(F)(F)F)cn1 (stereo in doubt) [compound 543] | – | – | – | < 0.1 µM | 0.036 µM |
| OC1(Cn2cc(-c3cc(F)cc4c3-c3ccccc3[C@]4(O)C(F)(F)F)cn2)CCCCC1 (stereo in doubt) [compound 544] | – | – | – | < 0.1 µM | 0.022 µM |
| OCC1(n2cc(-c3cc(F)cc4c3-c3ccccc3[C@]4(O)C(F)(F)F)cn2)CCCCC1 (stereo in doubt) [compound 545] | – | – | – | < 0.1 µM | 0.017 µM |
